The results in this text go back to BindingDB's records for patent US10022376 (Pfizer, 2018).

pIC50: −log10 of the molar value.

Test in all cases: JAK Caliper Enzyme Assay at 1 mM ATP
Common to all, as to conditions: pH 7.4; 25 °C

For experiment [1], the target named is Non-receptor tyrosine-protein kinase TYK2 (Homo sapiens, UniProt P29597). As for the experimental part:
(§1) Test article was solubilized in dimethyl sulfoxide (DMSO) to a stock concentration of 30 mM. An 11-point half log dilution series was created in DMSO with a top concentration of 600 μM. […] The compound plates were diluted 1 to 60 resulting in a top final assay compound concentration of 10 μM and a 2% DMSO concentration.Test article and assay controls were added to a 384-well plate. Reaction mixtures contained 20 mM HEPES, pH 7.4, 10 mM magnesium chloride, 0.01% bovine serum albumin (BSA), 0.0005% Tween 20, 1 mM ATP and 1 μM peptide substrate. […] Enzyme concentrations and incubation times were optimized for each new enzyme preps and were modified slightly over time to ensure 20%-30% phosphorylation. The assays were stopped with a final concentration of 10 mM EDTA, 0.1% Coating Reagent and 100 mM HEPES, pH=7.4. The assay plates were placed on a Caliper Life Science Lab Chip 3000 (LC3000) instrument, and each well was sampled using appropriate separation conditions to measure the unphosphorylated and phosphorylated peptide.

Experiment [2] concerns the target Tyrosine-protein kinase JAK1 (Homo sapiens, UniProt P23458). As for the experimental part:
as §1

In experiment [3] the target is Tyrosine-protein kinase JAK2 (Homo sapiens, UniProt O60674). As for the experimental part: as §1
Experiment [4] concerns the target T1, Tyrosine-protein kinase JAK3 (Homo sapiens, UniProt P52333).
T1 sequence (P52333 whole entry): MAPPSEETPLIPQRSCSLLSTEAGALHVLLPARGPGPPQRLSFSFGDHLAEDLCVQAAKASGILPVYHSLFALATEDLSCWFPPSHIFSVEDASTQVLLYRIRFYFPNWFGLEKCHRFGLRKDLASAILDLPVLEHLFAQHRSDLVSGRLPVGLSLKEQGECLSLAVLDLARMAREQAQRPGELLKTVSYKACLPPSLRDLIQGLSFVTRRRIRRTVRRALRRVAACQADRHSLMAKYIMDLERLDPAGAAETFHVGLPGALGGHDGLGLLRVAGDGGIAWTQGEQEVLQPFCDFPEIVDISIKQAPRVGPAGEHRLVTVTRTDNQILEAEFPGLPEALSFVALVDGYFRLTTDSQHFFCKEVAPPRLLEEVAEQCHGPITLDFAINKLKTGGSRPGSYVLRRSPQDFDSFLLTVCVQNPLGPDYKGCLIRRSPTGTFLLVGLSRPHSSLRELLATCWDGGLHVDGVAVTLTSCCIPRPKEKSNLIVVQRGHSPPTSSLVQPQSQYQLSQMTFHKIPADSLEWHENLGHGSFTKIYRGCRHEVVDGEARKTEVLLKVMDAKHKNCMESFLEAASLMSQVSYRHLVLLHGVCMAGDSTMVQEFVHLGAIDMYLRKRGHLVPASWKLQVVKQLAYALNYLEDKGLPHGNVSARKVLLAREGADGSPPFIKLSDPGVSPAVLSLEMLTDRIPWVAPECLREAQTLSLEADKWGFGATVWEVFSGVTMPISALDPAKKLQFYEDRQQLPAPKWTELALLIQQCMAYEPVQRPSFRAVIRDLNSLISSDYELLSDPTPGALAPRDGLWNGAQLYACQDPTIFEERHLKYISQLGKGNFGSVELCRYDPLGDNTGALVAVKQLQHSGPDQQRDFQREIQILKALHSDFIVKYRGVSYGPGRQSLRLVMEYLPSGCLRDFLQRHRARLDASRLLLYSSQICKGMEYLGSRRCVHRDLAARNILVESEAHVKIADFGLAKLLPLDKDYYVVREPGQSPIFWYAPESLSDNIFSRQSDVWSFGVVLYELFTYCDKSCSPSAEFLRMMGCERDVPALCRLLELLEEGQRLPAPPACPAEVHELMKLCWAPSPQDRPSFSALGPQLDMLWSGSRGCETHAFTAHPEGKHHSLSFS
As for the experimental part:
as §1

Chain of Tyrosine-protein kinase JAK1 (P23458 whole entry): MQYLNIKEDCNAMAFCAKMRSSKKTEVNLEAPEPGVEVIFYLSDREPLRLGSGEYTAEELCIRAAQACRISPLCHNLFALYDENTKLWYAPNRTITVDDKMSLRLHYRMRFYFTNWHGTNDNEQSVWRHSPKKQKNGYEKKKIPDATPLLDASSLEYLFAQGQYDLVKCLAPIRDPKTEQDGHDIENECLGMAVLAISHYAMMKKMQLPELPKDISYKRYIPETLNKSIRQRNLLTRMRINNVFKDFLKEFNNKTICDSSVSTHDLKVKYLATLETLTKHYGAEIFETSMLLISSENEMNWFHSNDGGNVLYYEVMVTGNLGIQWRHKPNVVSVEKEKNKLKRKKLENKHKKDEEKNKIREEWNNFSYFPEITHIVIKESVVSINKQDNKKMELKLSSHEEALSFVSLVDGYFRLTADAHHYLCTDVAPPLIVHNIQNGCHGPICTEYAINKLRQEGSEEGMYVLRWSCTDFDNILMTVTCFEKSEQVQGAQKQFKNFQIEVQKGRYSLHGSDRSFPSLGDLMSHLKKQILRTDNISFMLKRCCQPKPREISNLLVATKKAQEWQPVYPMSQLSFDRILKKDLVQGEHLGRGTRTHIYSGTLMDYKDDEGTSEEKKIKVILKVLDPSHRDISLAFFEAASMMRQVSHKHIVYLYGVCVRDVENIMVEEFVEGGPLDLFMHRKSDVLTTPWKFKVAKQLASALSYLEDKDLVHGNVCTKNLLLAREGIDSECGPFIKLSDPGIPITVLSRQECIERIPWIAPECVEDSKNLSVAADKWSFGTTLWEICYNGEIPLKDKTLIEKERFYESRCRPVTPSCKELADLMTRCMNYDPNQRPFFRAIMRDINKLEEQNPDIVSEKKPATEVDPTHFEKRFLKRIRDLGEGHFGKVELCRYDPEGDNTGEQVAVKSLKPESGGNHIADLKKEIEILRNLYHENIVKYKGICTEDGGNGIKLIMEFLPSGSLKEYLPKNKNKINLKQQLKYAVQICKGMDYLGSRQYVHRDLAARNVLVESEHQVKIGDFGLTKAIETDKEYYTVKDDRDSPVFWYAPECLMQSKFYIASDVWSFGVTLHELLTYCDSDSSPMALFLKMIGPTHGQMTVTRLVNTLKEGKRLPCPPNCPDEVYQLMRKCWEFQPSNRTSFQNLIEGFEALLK
Chain of Tyrosine-protein kinase JAK2 (O60674 whole entry): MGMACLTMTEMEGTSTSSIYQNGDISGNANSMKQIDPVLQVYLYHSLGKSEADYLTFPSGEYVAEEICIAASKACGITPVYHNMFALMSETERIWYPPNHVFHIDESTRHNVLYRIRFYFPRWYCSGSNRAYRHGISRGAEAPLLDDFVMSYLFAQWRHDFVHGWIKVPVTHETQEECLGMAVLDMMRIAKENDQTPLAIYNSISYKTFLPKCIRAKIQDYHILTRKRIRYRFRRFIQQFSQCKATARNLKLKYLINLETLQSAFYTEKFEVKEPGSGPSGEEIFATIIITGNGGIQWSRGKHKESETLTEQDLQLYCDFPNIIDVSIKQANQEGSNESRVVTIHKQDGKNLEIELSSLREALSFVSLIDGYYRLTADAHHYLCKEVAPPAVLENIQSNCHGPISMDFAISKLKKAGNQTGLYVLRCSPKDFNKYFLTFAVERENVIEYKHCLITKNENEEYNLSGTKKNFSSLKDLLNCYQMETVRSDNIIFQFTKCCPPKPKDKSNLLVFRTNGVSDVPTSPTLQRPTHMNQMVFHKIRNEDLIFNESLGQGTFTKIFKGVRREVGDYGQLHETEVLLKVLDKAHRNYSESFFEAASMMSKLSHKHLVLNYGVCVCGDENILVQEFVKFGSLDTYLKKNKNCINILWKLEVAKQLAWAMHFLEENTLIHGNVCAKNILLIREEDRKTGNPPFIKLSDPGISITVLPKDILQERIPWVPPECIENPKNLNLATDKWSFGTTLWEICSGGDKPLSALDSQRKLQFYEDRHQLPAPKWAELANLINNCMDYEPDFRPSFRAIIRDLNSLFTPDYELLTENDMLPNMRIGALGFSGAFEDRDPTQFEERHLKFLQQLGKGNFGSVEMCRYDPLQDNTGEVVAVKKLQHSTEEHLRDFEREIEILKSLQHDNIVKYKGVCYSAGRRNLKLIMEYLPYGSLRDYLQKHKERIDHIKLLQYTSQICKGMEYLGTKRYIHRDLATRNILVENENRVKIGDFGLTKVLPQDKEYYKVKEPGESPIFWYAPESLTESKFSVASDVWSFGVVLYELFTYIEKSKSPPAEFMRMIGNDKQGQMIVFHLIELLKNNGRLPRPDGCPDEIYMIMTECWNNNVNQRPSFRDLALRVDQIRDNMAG
Chain of Non-receptor tyrosine-protein kinase TYK2 (P29597 whole entry): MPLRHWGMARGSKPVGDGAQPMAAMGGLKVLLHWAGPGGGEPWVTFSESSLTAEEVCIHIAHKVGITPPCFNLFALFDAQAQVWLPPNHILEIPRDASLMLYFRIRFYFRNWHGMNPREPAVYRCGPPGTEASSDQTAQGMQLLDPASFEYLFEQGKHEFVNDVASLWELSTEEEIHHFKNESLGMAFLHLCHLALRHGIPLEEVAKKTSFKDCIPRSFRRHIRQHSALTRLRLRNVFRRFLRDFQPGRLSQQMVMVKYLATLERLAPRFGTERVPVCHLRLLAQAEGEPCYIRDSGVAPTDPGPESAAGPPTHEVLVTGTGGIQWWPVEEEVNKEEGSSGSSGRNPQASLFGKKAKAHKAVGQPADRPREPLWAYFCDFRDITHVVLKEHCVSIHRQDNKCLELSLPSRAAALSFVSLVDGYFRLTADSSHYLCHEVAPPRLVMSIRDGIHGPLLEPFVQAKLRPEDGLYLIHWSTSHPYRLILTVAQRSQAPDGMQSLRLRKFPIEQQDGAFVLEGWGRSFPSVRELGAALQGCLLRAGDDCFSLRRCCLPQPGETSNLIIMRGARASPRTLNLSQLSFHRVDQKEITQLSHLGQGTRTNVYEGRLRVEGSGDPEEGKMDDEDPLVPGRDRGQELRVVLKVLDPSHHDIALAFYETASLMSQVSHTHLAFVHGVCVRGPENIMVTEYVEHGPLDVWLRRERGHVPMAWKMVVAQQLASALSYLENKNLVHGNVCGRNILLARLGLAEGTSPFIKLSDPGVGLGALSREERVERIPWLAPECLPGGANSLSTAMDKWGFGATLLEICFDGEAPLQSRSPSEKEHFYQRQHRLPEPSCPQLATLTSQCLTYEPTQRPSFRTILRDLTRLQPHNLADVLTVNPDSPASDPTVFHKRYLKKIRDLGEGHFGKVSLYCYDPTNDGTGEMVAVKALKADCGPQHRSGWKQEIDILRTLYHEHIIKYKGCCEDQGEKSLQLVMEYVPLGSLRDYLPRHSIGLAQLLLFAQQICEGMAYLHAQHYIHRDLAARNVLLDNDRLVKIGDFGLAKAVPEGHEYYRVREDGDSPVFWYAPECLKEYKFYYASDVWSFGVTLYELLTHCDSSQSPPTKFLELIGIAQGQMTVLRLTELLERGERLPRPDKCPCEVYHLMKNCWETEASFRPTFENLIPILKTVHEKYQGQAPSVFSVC

With `CCN(c1ccc(O)cc1CNc1nc(-c2cc(F)c(O)cc2CC(F)(F)F)nc2[nH]nc(C(=O)NC)c12)S(=O)(=O)c1ccccc1` [US10022376, Example 75], the pIC50 was 5.71 in experiment [1], 7.21 in experiment [2], 6.49 in experiment [3] and 6.12 in experiment [4].
For `CN(c1ccc(O)cc1CNc1nc(-c2cc(F)c(O)cc2CC(F)(F)F)nc2[nH]nc(C(N)=O)c12)S(=O)(=O)c1ccccc1` [US10022376, Example 96], the pIC50 in experiment [1] is 5.76; in experiment [4] it was 6.61.
For `CCN(c1ccc(O)cc1CNc1nc(-c2cc(F)c(O)cc2CC(F)(F)F)nc2[nH]nc(C(N)=O)c12)S(=O)(=O)c1ccccc1` [US10022376, Example 97], the negative logarithm of the IC50 (pIC50) was 5.66 in experiment [1] and 7.26 in experiment [2].
Molecule `CN(c1ccccc1CNc1nc(-c2cc(F)c(O)cc2CC(F)(F)F)cc2[nH]nc(C(N)=O)c12)S(C)(=O)=O` [US10022376, Example 98] had a pIC50 in experiment [4] of 7.40.
In the case of `CN(c1cc(O)ccc1CNc1nc(-c2cc(F)c(O)cc2CC(F)(F)F)cc2[nH]nc(C(N)=O)c12)S(C)(=O)=O` [US10022376, Example 99], the values for the pIC50 in experiment [1] and in experiment [2] were 6.37 and 8.17, respectively.
`CNC(=O)c1n[nH]c2nc(-c3cc(F)c(O)cc3CC(F)(F)F)nc(NCc3ccccc3N(CCO)S(C)(=O)=O)c12` [US10022376, Example 100]: the pIC50 in experiment [1] was 5.94; in experiment [2], 8.06; in experiment [3], 7.49.
With `CC(=O)N1CCc2[nH]c(-c3n[nH]c4nc(-c5cc(F)c(O)cc5CC(F)(F)F)nc(NCc5cc(O)ccc5N(C)S(C)(=O)=O)c34)nc2C1` [US10022376, Example 105], the pIC50 in experiment [1] is 7.85; in experiment [3] it was 7.84; in experiment [4], 7.29.
For `CNC(=O)c1n[nH]c2nc(-c3cc(F)c(O)cc3CC(F)(F)F)nc(NCc3nccnc3N(C)S(C)(=O)=O)c12` [US10022376, Example 106], the pIC50 is 5.21 in experiment [1], 7.39 in experiment [2] and 6.55 in experiment [3].
For `CN(C)CCNC(=O)N1CCc2[nH]c(-c3n[nH]c4nc(-c5cc(F)c(O)cc5CC(F)(F)F)nc(NCc5cc(O)ccc5N(C)S(C)(=O)=O)c34)nc2C1` [US10022376, Example 110], the pIC50 was 7.46 in experiment [1], 8.27 in experiment [2] and 7.57 in experiment [3].
`CN(c1ccc(O)cc1CNc1nc(-c2cc(F)c(O)cc2CC(F)(F)F)cc2[nH]nc(C(=O)Nc3ccc(NCCO)nc3)c12)S(C)(=O)=O` [US10022376, Example 164]: the pIC50 in experiment [1] was 7.62; in experiment [2] it was 8.35; in experiment [3], 7.65; in experiment [4] it was 7.04.
Turning to `CN(c1ccc(O)cc1CNc1nc(-c2cc(F)c(O)cc2CC(F)(F)F)nc2[nH]nc(C(=O)Nc3ccc(NCCO)nc3)c12)S(C)(=O)=O` [US10022376, Example 169], the values for the pIC50 in experiment [1], in experiment [2] and in experiment [4] were 6.51, 7.98 and 7.22, respectively.
